Results from US20170027952A1, “ASSOCIATION BETWEEN 3-[(3--2-OXO-2,3-DIHYDRO-1H-INDOL-5-YL)METHYL]-1,3-THIAZOLIDINE-2,4-DIONE AND AN EGFR TYR KINASE INHIBITOR” (LES LABORATOIRES SERVIER, priority 2015, published 2017).
Where a name gives a salt, the structure may show the parent alone.

Tests used:
[1] = test system: erlotinib-resistant cell line HCC827; details: resistant line HCC827, compound on its own, 100 nM
Procedure: A cell viability test allowing the anti-proliferative ability of the anti-tumour compounds to be measured was used. The chosen cell line is line HCC827, a non-small cell lung cancer line that depends upon EGFR for its survival. […] The cells are seeded (150 μl) at the appropriate density in the wells of 96-well plates 2 days prior to the experiment. One column contains the untreated control cells representing 100% proliferation. The others are incubated with the test products for 4 doubling times.

[2] = test system: erlotinib-resistant HCC827 tumour; assay: Inhibition of the growth of the erlotinib-resistant HCC827 tumour; format: in vivo, female SCID mice; details: d19, end of treatments, compounds on their own, oral daily for 19 days; erlotinib 12.5 mg/kg, compound A 50 mg/kg
Procedure: The tumours were allocated at random into groups of eight mice when the tumour volume had reached approximately 200 mm^3. […] The tumour volumes were measured two to three times each week using a sliding caliper. The median tumour volumes with the interquartile ranges are recorded on the graph.

O=C1Nc2ccc(CN3C(=O)CSC3=O)cc2C1=Cc1cc(CN2CCOCC2)c[nH]1 [compound A, 3-[(3-{[4-(4-morpholinyl-methyl)-1H-pyrrol-2-yl]methylene}-2-oxo-2,3-dihydro-1H-indol-5-yl)methyl]-1,3-thiazolidine-2,4-dione hydrochloride]
effect on the viability [1]: no effect on the viability | inhibition of the growth [2]: 83%
